Assays:
[1] = test system: sulfonylurea-induced hyperinsulinism; test: Sulfonylurea (glibenclamide) challenge and euglycemic clamp, MAD; format: in vivo, human
Method: MAD/Part 2: multiple ascending dose, randomized, placebo-controlled, double-blind; up to 5 cohorts, n=9/cohort; subjects in MAD will receive Compound 1 or the placebo. Subjects will undergo a mixed meal tolerance test (MMTT) and an SU challenge and euglycemic clamp procedure. The doses will not exceed the doses in the SAD. Doses will escalate from 30 mg to 120 mg.
In SAD 1b and the MAD, subjects will undergo an SU challenge in the setting of a euglycemic clamp procedure. Sulfonylurea drugs act to close KATP channel of the pancreatic β-cell, stimulating endogenous insulin secretion. Given that the majority (50%) of patients with congenital HI harbor a mutation in the KATP channel, the SU challenge models this genetic form of HI in healthy volunteers. Intravenous glucose will be used during the euglycemic clamp to maintain glucose within a target range. In the presence of an SU, the amount of intravenous (IV) glucose required to maintain a target glucose will increase, similar to patients with congenital HI who require supplemental glucose. The SU challenge cohorts in SAD 1b will assess the ability of a single dose of Compound 1 to reduce or prevent SU-induced glucose lowering as measured by reduced IV glucose infusion (reduced glucose “support”). IV glucose requirements will be assessed as a glucose infusion rate, or GIR (mg dextrose/kg body weight/minute). In the MAD, the durability of the Compound 1 effect will be measured by assessing the GIR required to maintain euglycemia during the SU challenge after 10 days of Compound 1 dosing compared to the baseline SU challenge in the absence (predose) of Compound 1.
Glibenclamide will be used for SU-induced hypoglycemia. Based on the available dose-response data in healthy volunteers, 5 mg of glibenclamide will be orally administered to healthy volunteers in selected single- and multi-dose cohorts. The risk of hypoglycemia due to overdose is negligible because continuous glucose monitoring by a clamp device will be performed for each subject and IV infusion of glucose will be provided to maintain each subject's baseline glucose levels.
The euglycemic glucose clamp will be performed by means of a glucose clamp device (ClampArt®; Profil Institut für Stoffwechselforschung, Neuss, Germany). The subject will be connected to the clamp device that will monitor the subject's PG continuously. The device will calculate aggregated PG values every minute. Based on these values, GIR will be calculated every minute using the algorithm implemented into the device and glucose will be administered automatically by the device to keep the PG concentration of the subject constant at a pre-determined target level. Approximately 2 mL of blood per hour will be sampled for glucose monitoring by ClampArt®/the clamp device. […]

[2] = test system: human pancreatic islets; test: Insulin secretion in perifused human islets; format: cell-based; settings: for Effect on glucose- and tolbutamide-stimulated insulin secretion: G16.7 and G16.7+Tolb
Method: The activity of Compound 1 on insulin and glucagon secretion in human pancreatic islets from three healthy adult donors (Prodo Labs, Aliso Viejo, Calif.) was evaluated using a perifusion system that enables dynamic insulin and glucagon measurements from the same islet preparation in response to different stimuli. Specifically, the effects on glucose-stimulated and sulfonylurea (tolbutamide)-stimulated insulin secretion and arginine-stimulated glucagon secretion were investigated and compared to those of a maximally effective concentration of diazoxide. Islets were collected in culture media (Prodo Labs #PIM-S001GMP) supplemented with 5% human AB serum (Prodo Labs #PIM-ABS001GMP), 1% glutamine-glutathione (Prodo Labs #PIM-G001GMP) and an antibiotic cocktail of amphotericin B, ciproflaxin and gentamicin (Prodo Labs #PIM-3X001GMP) and plated at a density of 1500-3000 islet equivalents (IEQ) in 10-cm nontreated tissue culture dishes (Thomas Scientific #1182M59). Islets were cultured at 37° C., 5% CO2 and 95% humidity for 20 h. Dynamic insulin secretion assays were performed using a perifusion system, Peri5 (Biorep Technologies, FL. Glucose (Boston BioProducts #BM-675) at 3 mM (G3) or 16.7 mM (G16.7), or glucose at 16.7 mM plus 100 μM tolbutamide (Sigma #T0891; G16.7+Tolb) were prepared in perifusion buffer, PB=[24 mM NaHCO3 (Fisher Scientific #S233-500), 120 mM NaCl (Spectrum Chemical #S0155), 4.8 mM KCl (Fisher Scientific #P217-500), 2.5 mM CaCl2 (Fisher Scientific #C614-500), 1.2 mM MgCl2 (Sigma #M8266), 10 mM HEPES (Gibco #15630-080) and 0.1% BSA (EMD Millipore #12675-100GM)]. Various concentrations of Compound 1 and diazoxide (Sigma #D9035) were prepared in G16.7 or in G16.7+Tolb. […] Insulin concentration was quantified using the commercially-available Mercodia Insulin ELISA (Mercodia #10-1113-10) kit. […] The optical density of each well was determined at 450 nm in a Tecan M1000Pro (Tecan, Switzerland) multiplate reader. Insulin concentrations were calculated by regression to the standard curve using GraphPad Prism (GraphPad, San Diego, Calif.).

[3] = test system: glyburide-induced hyperinsulinemic hypoglycemia; test: Glyburide-induced hyperinsulinemic hypoglycemia model in rats; format: in vivo, Sprague Dawley rats; settings: for Blood glucose levels reached over 5 hours: male rats, 2 h after glyburide, vehicle 94 mg/dL
Method: Sulfonylurea drugs, such as glyburide, inhibit KATP channels and can be used in rat preclinical models to mimic the disease state of congenital HI patients with KATP channel mutations.
This model of glyburide-induced hyperinsulinemic hypoglycemia was used to assess the pharmacodynamic effects of Compound 1 after a single administration in male and female adult rats and male neonatal rats.
Glyburide was administered to raise insulin levels and induce hypoglycemia in adult male Sprague Dawley rats.
Two hours following glyburide administration, Compound 1 was given by oral gavage and blood glucose was monitored over 5 hours.

[4] = after 10 days of 30, 60 or 120 mg QD

SMILES: C[C@H](NC(=O)c1cnc(C#N)c(-c2cc(F)cc(F)c2)c1N1CC[C@H](N)C1)C(F)(F)F [Compound 1, 4-[(3S)-3-aminopyrrolidin-1-yl]-6-cyano-5-(3,5-difluorophenyl)-N-[(2S)-1,1,1-trifluoropropan-2-yl]pyridine-3-carboxamide]
- Plasma glucose during sulfonylurea challenge ([1]; 120 mg cohort, Day 10): mild elevation of plasma glucose
- Effect on sulfonylurea-induced hyperinsulinism [1, 4]: reversed sulfonylurea-induced hyperinsulinism
- Need for IV glucose support (glucose infusion rate) [1, 4]: eliminating the need for IV glucose support
- Insulin and C-peptide levels during sulfonylurea challenge ([1]; day 10, all cohorts): suppressed
- Effect on glucose- and tolbutamide-stimulated insulin secretion ([2]; 0.1 μM): intermediate effect
- Effect on glucose- and tolbutamide-stimulated insulin secretion ([2]; 1 μM, both phases): strongest inhibitory effect
- Insulin secretion in response to 16.7 mM glucose and tolbutamide ([2]; concentration dependent, islets from three healthy adult donors): inhibited insulin secretion
- Blood glucose levels reached over 5 hours ([3]; 3 mg/kg oral): up to 111 mg/dL
- Blood glucose levels reached over 5 hours ([3]; 10 mg/kg oral): ≤ 134 mg/dL
- Blood glucose levels reached over 5 hours ([3]; 30 mg/kg oral): ≤ 203 mg/dL
- Blood glucose levels compared to vehicle ([3]; oral, 3-30 mg/kg): dose-dependently increased blood glucose levels
- Minimum effective dose (significant increase in blood glucose AUC over 5 hours) ([3]; oral, single dose): 10 mg/kg
